Where no end group is shown, it is not given here.
Test system: vTreg53 Treg cells
Assay: Expansion of transferred vTreg53 Treg cells in Spl/LN or VAT after prime and boost
Format: in vivo, mouse
Conditions: compared with adjuvant alone, CFA s.c. then IFA i.p.
Source text: Figure 4. SPs induce proliferation and activation of vTreg53 Treg cells in vitro and in vivo. (A–D) Proliferation and activation of vTreg53 Treg cells by different concentrations of SPs for 3 days in vitro (n = 3). (A) Representative flow cytometric plot of cell division. (B) Summary of cell proliferation. (C) Mean flourescence intensity (MFI) of CD44 staining in clonotype^+ Treg cells. (D) MFI of CD62L staining in clonotype^+ Treg cells. (E) Proliferation of transferred CD45.2^+ vTreg53 Treg cells in the spleen of CD45.1^+ B6 recipient mice immunized s.c. with CFA or CFA/Fat1562 at day 3 (n = 3). […]
To assess early Treg proliferation following peptide stimulation in vivo, 0.4 million Treg cells were sorted from pooled Spl and LNs of 6-8wk-old male CD45.2^+ Tg^+ Foxp3-GFP^KI/y mice by Moflo, labeled by the CellTrace Violet dye (ThermoFisher Scientific), and were i.v.-injected into 6-8wk old male B6.CD45.1^+ mice. […] Proliferation of clonotype^+ Tregs in the spleen was determined three days later. […] Six weeks later, the recipient mice were immunized with 200 µg CFA/peptides s.c. on the lower back, and one week later were boosted with 100 μg IFA/peptides i.p. After another week, clonotype^+ CD45.2^+ Treg cells from the Spl/LNs or VAT of recipient mice were analyzed by flow cytometry and double-sorted for ultra-low-input RNA-seq. […]

For TMYKNPRPMAATG [Fat1562], the “expansion of clonotype^+ Treg cells in VAT” value was > 25 fold.
